From patent US20250127896A1, “CHIMERIC TIM4 RECEPTORS AND USES THEREOF” (CERO THERAPEUTICS HOLDINGS, INC., priority 2021, published 2025)
Entries after “also recorded” stand apart in the source; their conditions may differ.

How the values were obtained:
REC-1 cells = assay: CER T cell cytotoxicity against REC-1 mCherry cells with ibrutinib (Incucyte); format: cell-based; settings: for cytotoxic activity of CER T cells alone (no ibrutinib) / tumor cell killing in combination with ibrutinib: REC-1 cells
From the text: FIG. 38: CER1236 T cells have enhanced and more complete cytotoxic effect against Ibrutinib-treated REC-1 MCL cells but not untreated REC-1 MCL cells.
Ibrutinib was washed off prior to co-culture with CER T cells. […] Total fluorescence of REC-1 mCherry cells decreased as cytotoxicity occurred.

[1] = system: phosphatidylethanolamine (PE); assay: Single induction plate assay: IFN-γ by CER T cells on plate-bound phosphatidylethanolamine (control); format: cell-based
From the text: (§1) FIGS. 19A-19C: CER T cells are activated and produce IFN-γ in response to phosphatidylserine engagement in a cell-free in vitro system. FIG. 19A: IFN-γ production in response phosphatidylserine (PS). IFN-γ production was induced in CER-1236 and CER-1234 T cells stimulated with PS (FIG. 19A), but not with phosphatidylethanolamine (PE) (FIG. 19B). […] FIG. 19C: CER1236 T cells are capable of recursive stimulation in vitro. Recursive IFN-γ induction with 3 serial stimulations at the indicated time points following a 24-hour rest after the first stimulation.
FIG. 33A-33C: CER T cells are activated and produce IFN-γ in response to phosphatidylserine engagement in a cell-free in vitro system. FIG. 33A: IFN-γ production in response phosphatidylserine (PS). IFN-γ production was induced in CER-1236 and CER-1234 T cells stimulated with PS (FIG. 33A), but not with phosphatidylethanolamine (PE) (FIG. 33B). […]
CER T-cell activation was assessed by measuring induction of IFN-gamma by plate- and cell-based assays. […] CER T cells were added and IFN-γ levels were measured 24 hours after ligand exposure by ELISA. EC50 concentrations were determined by nonlinear regression (agonist vs. response-variable slope (4 parameters)). […] Cell-based assay: cytokine induction was assessed by multiparametric ELISA using conditioned supernatants harvested after 120 hours from the cytotoxicity assay described below.

[2] = system: A2780 ovarian cancer cells; assay: Cytokine production by CER T cells co-cultured with PARP inhibitor-treated A2780 cells; format: cell-based, human; settings: for TNF-α, IFN-γ, granzyme B induction: PARP inhibitor-treated A2780, E:T 1:1
Method: FIGS. 35A-35C: Cytokine production by CER T cells in response to co-culture with PARP inhibitor-treated A2780 ovarian cancer cells. Samples from left to right: no drug, niraparib treated, and olaparib treated. FIG. 35A-IFN-γ. FIG. 35B-TNF-α. FIG. 35C-granzyme B.
(§2) CER T-cell activation was assessed by measuring induction of IFN-gamma by plate- and cell-based assays. Single induction plate assay: varying concentrations of phosphatidylserine (PS) or phosphatidylethanolamine (PE), a control membrane phospholipid not recognized by wild type TIM-4 (wtTIM-4), were coated onto high-binding tissue culture plates. CER T cells were added and IFN-γ levels were measured 24 hours after ligand exposure by ELISA. EC50 concentrations were determined by nonlinear regression (agonist vs. response-variable slope (4 parameters)). Induction by recursive stimulation plate assay: CER T cells were added to phosphatidylserine coated plates (2.5-20 μg/mL PS coating). Five days later, CER T cells were transferred to uncoated plates with fresh T cell optimizer media for 24 hours. Then, CER T cells were transferred again to a fresh PS coated plate. Supernatant was collected to assess IFN-γ induction by ELISA at various timepoints during re-stimulation (24, 72, and 120 hours). Cell-based assay: cytokine induction was assessed by multiparametric ELISA using conditioned supernatants harvested after 120 hours from the cytotoxicity assay described below.

Jeko1 TMEM30A−/− cells = assay: CER T cell cytotoxicity against Jeko1 TMEM30A−/− cells (Incucyte); format: cell-based; settings: for cytotoxic function against Jeko1 TMEM30A−/− cells: co-culture assays
Method: FIG. 22: CER1234 or CER1236 T cells display cytotoxic function against Jeko1 TMEM30A^−/− MCL cells as measured by incucyte assay.
Statistical analysis was performed using 2-way ANOVA.

phosphatidylserine (PS) = assay: Single induction plate assay: IFN-γ by CER T cells on plate-bound phosphatidylserine (ELISA); format: cell-based; settings: for IFN-γ production in response to phosphatidylserine: plate-bound PS; for IFNγ production by donor in response to increasing doses of plate-bound phosphatidylserine: three donors (31, 32, 38)
From the text: as §1
as §1, with “FIG. 33A-33C:” for “FIGS. 19A-19C:”, “33A:” for “19A:”, “33A),” for “19A),”, “33B).” for “19B).”, “33C:” for “19C:”
FIG. 44 are graphs showing IFNγ production in CER1234 T cells (left) or CER1236 T cells (right) from three donors in response to titrating doses of plate-bound phosphatidylserine.
FIG. 45 are graphs showing IFNγ production in CER1234 T cells or CER1236 T cells by donor in response to increasing doses of plate-bound phosphatidylserine.
FIG. 46 are graphs showing IFNγ production in CER1234 T cells or CER1236 T cells by donor in response to increasing doses of plate-bound phosphatidylserine at day 14 post-thaw.
FIG. 47 are graphs showing T cell expansion (left), IFNγ production (center), and cell viability (right) in CER1236 T cells in response to increasing doses of plate-bound phosphatidylserine.
FIG. 48 are graphs showing T cell expansion (left), IFNγ production (center), and cell viability (right) in CER1234 T cells in response to increasing doses of plate-bound phosphatidylserine.
as §2
T cells obtained from three different donors were transduced with CER1234 or CER1236 and incubated on titrating doses of plate-bound phosphatidylserine.
24 hour IFNγ stimulation by plate-bound phosphatidylserine aligns with day 5 post-activation expansion for CER1236 T cells. […] 24 hour IFNγ stimulation by plate-bound phosphatidylserine aligns with day 5 post-activation expansion for CER1234 T cells.

A2780 cells = settings: for A2780 cells eliminated, single agent: compared to untreated; for A2780 cells eliminated, combination with niraparib: niraparib 0.5 μM; for A2780 cells eliminated, combination with niraparib / A2780 cells eliminated, combination with olaparib: after 5 days of co-culture; for A2780 cells eliminated, combination with olaparib: olaparib 1.5 μM
Method: FIG. 34B: At 120 hours, the ratio of cells remaining in treated samples compared to untreated A2780 samples was quantified using the incucyte data from FIG. 34A. FIG. 34C: Proliferation of CER T cells in co-culture assays.
At day 0, media was exchanged and donor T cells from three subjects (FIG. 28) transduced with CER-1234, CER-1236, or control CER-1183 (FIG. 27A) were added at various effector:target ratios to A2780 cells treated with PARPi to assess chimeric Tim4 receptor-T cell activation, cytokine production, proliferation, and cytotoxic responses. Chimeric Tim4 receptor-T cells immunophenotyping and bulk supernatant analysis was performed on day 2 and day 5 following initiation of co-culture.
CER T-cell cytotoxic function was evaluated using the Incucyte® live-cell analysis system in co-culture assays with A2780 cells. A2780 cells engineered to constitutively express mCherry were pretreated with 1.5 μM olaparib, 0.5 μM niraparib or no drug for 96 hours. CER T cells (expanded for 6 days after transduction) in T-cell optimizer media containing IL-2, IL-7, and IL-15 were co-cultured with A2780 cells at an effector:target (E:T) ratio of 1:2 in the presence of the same concentrations of olaparib or niraparib.

[3] = either drug combined, 96 hours, compared to CER-1234 with no drug
[4] = Donor 38, 24 hours after ligand exposure
[5] = Donor 41, 24 hours after ligand exposure

CER-1234: chimeric Tim4 receptor: Tim4 binding domain-CD28tm-CD28-TLR2 TIR-CD3z, SEQ ID NO:18; tested as transduced T cells
cytotoxicity (REC-1 cells; BTKi treatment in combination): > 90% | cytotoxic activity of CER T cells alone (no ibrutinib) (REC-1 cells): limited cytotoxic activity | tumor cell killing in combination with ibrutinib (REC-1 cells): Tumor cell killing was enhanced | IFN-γ production in response to phosphatidylethanolamine [1]: but not to phosphatidylethanolamine (PE) | TNF-α, IFN-γ, granzyme B induction [2]: induced | Interferon-γ increase [2, 3]: 7 fold | granzyme B increase [2, 3]: 5-7 fold | targets eliminated (Jeko1 TMEM30A−/− cells; JeKo-1 PS+ cells, 96 hrs, low effector:target ratios): 90% | cytotoxic function against Jeko1 TMEM30A−/− cells (Jeko1 TMEM30A−/− cells): efficiently eliminate Jeko1 TMEM30A^−/− cells | PS EC50 (IFN-γ production) (phosphatidylserine (PS); [4]): 3.52 µg/mL | PS EC50 (IFN-γ production) (phosphatidylserine (PS); [5]): 1.88 µg/mL | IFN-γ production in response to phosphatidylserine (phosphatidylserine (PS)): specifically produce IFN-γ in a dose-dependent manner; also recorded: produced concentration-dependent IFN-γ responses | IFNγ production by donor in response to increasing doses of plate-bound phosphatidylserine (phosphatidylserine (PS)): shows lower activation for donors 32 and 38 | cytotoxic activity of CER T cells alone against A2780 cells (A2780 cells): limited cytotoxic activity | A2780 cells eliminated, single agent (A2780 cells): 39% | A2780 cells eliminated, combination with niraparib (A2780 cells): 58% | A2780 cells eliminated, combination with olaparib (A2780 cells): 66%

CER-1236: chimeric Tim4 receptor: Tim4 binding domain-CD28tm-CD28-CD3z-TLR2 TIR, SEQ ID NO:19; tested as transduced T cells
cytotoxic activity of CER T cells alone (no ibrutinib) (REC-1 cells): Some CER1236 T cytotoxicity against untreated REC-1 cells is observed | tumor cell killing in combination with ibrutinib (REC-1 cells): synergize with ibrutinib to enhance killing of REC-1 mantle cell lymphoma cells | IFN-γ production in response to phosphatidylethanolamine [1]: but not to phosphatidylethanolamine (PE) | TNF-α, IFN-γ, granzyme B induction [2]: induced | cytotoxic function against Jeko1 TMEM30A−/− cells (Jeko1 TMEM30A−/− cells): efficiently eliminate Jeko1 TMEM30A^−/− cells | PS EC50 (IFN-γ production) (phosphatidylserine (PS); [4]): 4.74 µg/mL | PS EC50 (IFN-γ production) (phosphatidylserine (PS); [5]): 3.16 µg/mL | IFNγ production by donor on plate-bound phosphatidylserine at day 14 post-thaw (phosphatidylserine (PS); day 14 post-thaw): produces more IFNγ across all donors compared to CER1234 T cells | IFN-γ production in response to phosphatidylserine (phosphatidylserine (PS)): specifically produce IFN-γ in a dose-dependent manner; also recorded: produced concentration-dependent IFN-γ responses | IFNγ production by donor in response to increasing doses of plate-bound phosphatidylserine (phosphatidylserine (PS)): shows strong activation | cytotoxic activity of CER T cells alone against A2780 cells (A2780 cells): limited cytotoxic activity | A2780 cells eliminated, single agent (A2780 cells): 19% | A2780 cells eliminated, combination with niraparib (A2780 cells): 81% | A2780 cells eliminated, combination with olaparib (A2780 cells): 73%
